Data reported in patent US20230151003A1, “COMPOUNDS AND METHODS OF USE” (Exelixis, Inc., priority 2020, published 2023).

Tests used:
Met = Met (Homo sapiens, UniProt P08581); test: Met autophosphorylation ELISA in PC-3 cells; format: cell-based; design: endogenous in cells; host or cells: PC-3 prostate cancer cells (ATCC #CRL-1435); conditions: Table 3 Cellular Activities, HGF-stimulated, phospho-Met ELISA, read-out: c-Met IC50
Summary of the method: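 Serum-starved (3 h) PC-3 cells pre-incubated 1 h with compound (8-point dose curve, 0.3% DMSO), then stimulated with 100 ng/mL recombinant human HGF for 10 min. Lysate phospho-Met (panTyr) measured by sandwich ELISA; IC50 from 4-parameter logistic fit, normalised to DMSO (100%) and reference-inhibitor (0%) controls.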

AXL = molecular target: T1, AXL (Homo sapiens, UniProt P30530); test: AXL autophosphorylation ELISA in A-172 cells; format: cell-based; conditions: Table 3 Cellular Activities, Gas6-stimulated, phospho-AXL ELISA
T1 construct: endogenous in cells; host or cells: A-172 glioblastoma cells (ATCC #CRL-1620)
T1 sequence (P30530 26-894): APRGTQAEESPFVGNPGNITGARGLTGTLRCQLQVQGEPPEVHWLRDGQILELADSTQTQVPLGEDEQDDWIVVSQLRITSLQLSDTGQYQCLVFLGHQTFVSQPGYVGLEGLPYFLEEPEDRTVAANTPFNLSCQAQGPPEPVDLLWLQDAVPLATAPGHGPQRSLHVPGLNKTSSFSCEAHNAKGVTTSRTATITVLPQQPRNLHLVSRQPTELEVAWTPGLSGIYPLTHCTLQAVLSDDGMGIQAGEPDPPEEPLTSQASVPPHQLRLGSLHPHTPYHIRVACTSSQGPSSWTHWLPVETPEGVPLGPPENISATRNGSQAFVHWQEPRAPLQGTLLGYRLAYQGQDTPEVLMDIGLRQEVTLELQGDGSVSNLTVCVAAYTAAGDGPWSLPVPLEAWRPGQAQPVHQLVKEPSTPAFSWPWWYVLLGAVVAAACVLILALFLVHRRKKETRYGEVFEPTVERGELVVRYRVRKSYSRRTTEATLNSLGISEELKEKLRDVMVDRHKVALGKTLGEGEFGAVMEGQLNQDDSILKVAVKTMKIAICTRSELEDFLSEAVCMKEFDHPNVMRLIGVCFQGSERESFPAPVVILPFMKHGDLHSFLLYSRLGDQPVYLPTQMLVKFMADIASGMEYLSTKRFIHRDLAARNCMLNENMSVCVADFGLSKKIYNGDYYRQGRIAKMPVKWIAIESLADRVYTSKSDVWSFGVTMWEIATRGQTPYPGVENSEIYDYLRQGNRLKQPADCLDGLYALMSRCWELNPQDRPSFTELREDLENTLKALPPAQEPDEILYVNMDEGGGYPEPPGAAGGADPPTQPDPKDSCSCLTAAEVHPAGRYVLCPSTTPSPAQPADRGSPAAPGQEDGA
Summary of the method: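 A-172 glioblastoma cells serum-starved 24 h, treated 1 h with compounds (8-point dose curve, 0.3% DMSO), then stimulated with 1 μg/mL Gas6 for 15 min. Lysate phospho-AXL quantified by ELISA against a standard; IC50 from 4-parameter logistic fit, normalised to DMSO and reference-inhibitor controls.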

Sequence of Met (P08581 25-1390): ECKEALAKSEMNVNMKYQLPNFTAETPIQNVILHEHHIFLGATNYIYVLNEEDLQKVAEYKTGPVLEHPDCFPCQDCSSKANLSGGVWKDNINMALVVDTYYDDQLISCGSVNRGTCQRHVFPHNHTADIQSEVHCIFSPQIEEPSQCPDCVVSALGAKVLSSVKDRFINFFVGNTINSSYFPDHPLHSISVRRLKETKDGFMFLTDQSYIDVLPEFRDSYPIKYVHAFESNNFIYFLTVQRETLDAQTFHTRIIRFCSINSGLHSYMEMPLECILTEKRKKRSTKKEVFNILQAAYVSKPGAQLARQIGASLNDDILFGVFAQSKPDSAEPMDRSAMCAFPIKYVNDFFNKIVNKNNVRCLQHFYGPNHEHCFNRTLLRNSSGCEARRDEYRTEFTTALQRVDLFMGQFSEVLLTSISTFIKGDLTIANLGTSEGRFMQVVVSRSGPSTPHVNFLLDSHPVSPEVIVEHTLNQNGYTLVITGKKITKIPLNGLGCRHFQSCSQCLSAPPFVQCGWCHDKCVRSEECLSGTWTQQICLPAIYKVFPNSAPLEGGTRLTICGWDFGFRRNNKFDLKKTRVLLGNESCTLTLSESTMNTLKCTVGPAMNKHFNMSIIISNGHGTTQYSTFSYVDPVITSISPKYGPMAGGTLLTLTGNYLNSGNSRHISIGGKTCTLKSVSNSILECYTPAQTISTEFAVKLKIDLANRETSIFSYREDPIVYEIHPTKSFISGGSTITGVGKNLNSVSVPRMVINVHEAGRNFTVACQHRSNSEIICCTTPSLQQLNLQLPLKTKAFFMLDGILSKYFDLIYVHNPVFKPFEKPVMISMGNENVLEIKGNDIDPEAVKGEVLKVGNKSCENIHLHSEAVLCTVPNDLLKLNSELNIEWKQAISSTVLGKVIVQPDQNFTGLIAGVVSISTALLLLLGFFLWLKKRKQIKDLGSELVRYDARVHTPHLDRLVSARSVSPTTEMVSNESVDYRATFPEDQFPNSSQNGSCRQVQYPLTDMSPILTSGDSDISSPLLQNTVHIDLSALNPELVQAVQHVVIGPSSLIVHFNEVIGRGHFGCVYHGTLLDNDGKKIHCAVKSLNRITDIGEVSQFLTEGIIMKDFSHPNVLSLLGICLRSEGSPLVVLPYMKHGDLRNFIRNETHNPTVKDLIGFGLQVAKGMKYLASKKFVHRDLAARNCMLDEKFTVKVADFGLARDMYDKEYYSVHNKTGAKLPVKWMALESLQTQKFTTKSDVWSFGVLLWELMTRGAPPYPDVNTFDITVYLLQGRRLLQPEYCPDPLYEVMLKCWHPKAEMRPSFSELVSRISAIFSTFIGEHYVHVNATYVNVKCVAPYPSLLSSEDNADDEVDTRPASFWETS

Row | IC50 (Met) [nM] | IC50 (AXL) [nM] | SMILES
1 | ≤ 100 | ≤ 100 | COc1cc2nccc(Oc3ccc(NC(=O)c4cnc(C)c(-c5cscn5)c4O)cc3F)c2nc1OC [Compound 142, N-[4-[(6,7-Dimethoxy-1,5-naphthyridin-4-yl)oxy]-3-fluorophenyl]-4-hydroxy-6-methyl-5-(1,3-thiazol-4-yl)pyridine-3-carboxamide]
2 | ≤ 100 | ≤ 100 | COc1cc2nccc(Oc3ccc(NC(=O)c4c(C)nc(C)c(-c5ccnn5C)c4O)cc3F)c2nc1OC [Compound 108, N-[4-[(6,7-Dimethoxy-1,5-naphthyridin-4-yl)oxy]-3-fluoro-phenyl]-4-hydroxy-2,6-dimethyl-5-(2-methylpyrazol-3-yl) pyridine-3-carboxamide]
3 | ≤ 100 | ≤ 100 | COc1cnc2c(Oc3ccc(NC(=O)c4cnc(C)c(-c5ccoc5)c4O)cc3F)ccnc2c1 [Compound 99, N-[3-Fluoro-4-[(7-methoxy-1,5-naphthyridin-4-yl)oxy]phenyl]-5-(3-furyl)-4-hydroxy-6-methyl-pyridine-3-carboxamide]
4 | ≤ 100 | ≤ 100 | COc1cc2nccc(Oc3cc(F)c(NC(=O)c4c(C)n(C)c(C)c(-c5ccco5)c4=O)cc3F)c2nc1OC [Compound 163, N-[4-[(6,7-Dimethoxy-1,5-naphthyridin-4-yl)oxy]-2,5-difluorophenyl]-5-(furan-2-yl)-1,2,6-trimethyl-4-oxopyridine-3-carboxamide]
5 | ≤ 100 | ≤ 100 | COc1cc2nccc(Oc3ccc(NC(=O)c4c(C)n(C)c(C)c(-c5cccs5)c4=O)cc3)c2nc1OC [Compound 167, N-[4-[(6,7-Dimethoxy-1,5-naphthyridin-4-yl)oxy]phenyl]-1,2,6-trimethyl-4-oxo-5-thiophen-2-ylpyridine-3-carboxamide]
6 | ≤ 100 | ≤ 100 | COc1nc2c(Oc3ccc(NC(=O)c4c(C)n(C)c(C)c(-c5ccco5)c4=O)cc3F)ccnc2cc1OCCC1CCC1 [Compound 337, N-[4-[[7-(2-Cyclobutylethoxy)-6-methoxy-1,5-naphthyridin-4-yl]oxy]-3-fluorophenyl]-5-(furan-2-yl)-1,2,6-trimethyl-4-oxopyridine-3-carboxamide]
7 | ≤ 100 | ≤ 100 | COc1cc2nccc(Oc3ccc(NC(=O)c4c(C)n(C)c(C)c(-c5cccs5)c4=O)cc3F)c2nc1OC [Compound 168, N-[4-[(6,7-Dimethoxy-1,5-naphthyridin-4-yl)oxy]-3-fluorophenyl]-1,2,6-trimethyl-4-oxo-5-thiophen-2-ylpyridine-3-carboxamide]
8 | ≤ 100 | ≤ 100 | COCc1nc(C)c(-c2cccs2)c(O)c1C(=O)Nc1ccc(Oc2ccnc3cc(OC)c(OC)nc23)c(F)c1 [Compound 115, N-[4-[(6,7-Dimethoxy-1,5-naphthyridin-4-yl)oxy]-3-fluorophenyl]-4-hydroxy-2-(methoxymethyl)-6-methyl-5-thiophen-2-ylpyridine-3-carboxamide]
9 | ≤ 100 | ≤ 100 | COc1cc2nccc(Oc3ccc(NC(=O)c4cnc(C)c(-c5nccs5)c4O)cc3F)c2nc1OC [Compound 143, N-[4-[(6,7-Dimethoxy-1,5-naphthyridin-4-yl)oxy]-3-fluorophenyl]-4-hydroxy-6-methyl-5-(1,3-thiazol-2-yl)pyridine-3-carboxamide]
10 | ≤ 100 | ≤ 100 | COc1cc2nccc(Oc3ccc(NC(=O)c4c(C)nc(C)c(-c5cccs5)c4O)cc3F)c2nc1OC [Compound 107]
11 | ≤ 100 | ≤ 100 | COc1cc2nccc(Oc3ccc(NC(=O)c4cnc(C)c(-c5ccc(C(C)C)o5)c4O)cc3F)c2nc1OC [Compound 154, N-[4-[(6,7-Dimethoxy-1,5-naphthyridin-4-yl)oxy]-3-fluorophenyl]-4-hydroxy-6-methyl-5-(5-propan-2-ylfuran-2-yl)pyridine-3-carboxamide]
12 | ≤ 100 | ≤ 100 | COc1cc2nccc(Oc3ccc(NC(=O)c4c(C)nc(C)c(-c5ccc(C)s5)c4O)cc3F)c2nc1OC [Compound 111, N-[4-[(6,7-Dimethoxy-1,5-naphthyridin-4-yl)oxy]-3-fluoro-phenyl]-4-hydroxy-2,6-dimethyl-5-(5-methyl-2-thienyl)pyridine-3-carboxamide]
13 | ≤ 100 | ≤ 100 | COc1ccc2nccc(Oc3ccc(NC(=O)c4cnc(C)c(-c5cccs5)c4O)cc3F)c2n1 [Compound 128, N-[3-Fluoro-4-[(6-methoxy-1,5-naphthyridin-4-yl)oxy]phenyl]-4-hydroxy-6-methyl-5-thiophen-2-ylpyridine-3-carboxamide]
14 | ≤ 100 | 100 to 300 | COc1cc2nccc(Oc3ccc(NC(=O)c4cnc(C)c(-c5cc(C)nn5C)c4O)cc3F)c2nc1OC [Compound 136, N-[4-[(6,7-Dimethoxy-1,5-naphthyridin-4-yl)oxy]-3-fluorophenyl]-5-(2,5-dimethylpyrazol-3-yl)-4-hydroxy-6-methylpyridine-3-carboxamide]
15 | ≤ 100 | ≤ 100 | COc1cnc2c(Oc3ccc(NC(=O)c4cn(CCF)c(C)c(-c5ccoc5)c4=O)cc3F)ccnc2c1 [Compound 334, 1-(2-Fluoroethyl)-N-[3-fluoro-4-[(7-methoxy-1,5-naphthyridin-4-yl)oxy]phenyl]-5-(furan-3-yl)-6-methyl-4-oxopyridine-3-carboxamide]
16 | ≤ 100 | ≤ 100 | COc1cnc2c(Oc3ccc(NC(=O)c4cnc(C)c(-c5cc(C)cs5)c4O)cc3F)ccnc2c1 [Compound 102, N-[3-Fluoro-4-[(7-methoxy-1,5-naphthyridin-4-yl)oxy]phenyl]-4-hydroxy-6-methyl-5-(4-methyl-2-thienyl) pyridine-3-carboxamide]
17 | ≤ 100 | ≤ 100 | COc1cc2nccc(Oc3ccc(NC(=O)c4cnc(C)c(-c5cnoc5)c4O)cc3F)c2nc1OC [Compound 140, N-[4-[(6,7-Dimethoxy-1,5-naphthyridin-4-yl)oxy]-3-fluorophenyl]-4-hydroxy-6-methyl-5-(1,2-oxazol-4-yl)pyridine-3-carboxamide]
18 | ≤ 100 | ≤ 100 | C=CCc1ccc(-c2c(C)ncc(C(=O)Nc3ccc(Oc4ccnc5cc(OC)c(OC)nc45)c(F)c3)c2O)o1 [Compound 155, N-[4-[(6,7-Dimethoxy-1,5-naphthyridin-4-yl)oxy]-3-fluorophenyl]-4-hydroxy-6-methyl-5-(5-prop-2-enylfuran-2-yl)pyridine-3-carboxamide]
19 | ≤ 100 | ≤ 100 | COc1cc2nccc(Oc3ccc(NC(=O)c4c(C)nc(C)c(-c5ccoc5)c4O)cc3F)c2nc1OC [Compound 112, N-[4-[(6,7-Dimethoxy-1,5-naphthyridin-4-yl)oxy]-3-fluoro-phenyl]-5-(3-furyl)-4-hydroxy-2,6-dimethyl-pyridine-3-carboxamide]
20 | ≤ 100 | ≤ 100 | COc1cc2nccc(Oc3ccc(NC(=O)c4c(C)nc(C)c(-c5ccco5)c4O)cc3F)c2nc1OC [Compound 135, N-[4-[(6,7-Dimethoxy-1,5-naphthyridin-4-yl)oxy]-3-fluorophenyl]-5-(furan-2-yl)-4-hydroxy-2,6-dimethylpyridine-3-carboxamide]
21 | ≤ 100 | ≤ 100 | COc1cnc2c(Oc3ccc(NC(=O)c4cn(CCF)c(C)c(-c5ccc(C)s5)c4=O)cc3F)ccnc2c1 [Compound 329, 1-(2-Fluoroethyl)-N-[3-fluoro-4-[(7-methoxy-1,5-naphthyridin-4-yl)oxy]phenyl]-6-methyl-5-(5-methylthiophen-2-yl)-4-oxopyridine-3-carboxamide]
22 | ≤ 100 | ≤ 100 | COc1cc2nccc(Oc3ccc(NC(=O)c4cnc(C)c(-c5ccsc5)c4O)cc3F)c2nc1OC [Compound 93, N-[4-[(6,7-Dimethoxy-1,5-naphthyridin-4-yl)oxy]-3-fluoro-phenyl]-4-hydroxy-6-methyl-5-(3-thienyl)pyridine-3-carboxamide]
23 | ≤ 100 | ≤ 100 | COc1cc2nccc(Oc3ccc(NC(=O)c4c(C)nc(C)c(-c5cc(C(F)(F)F)nn5C)c4O)cc3F)c2nc1OC [Compound 138]
